# Laboratory results: patent publication US10167299B2, “1-(3-aminopropyl) substituted cyclic amine compounds, preparation method therefor, and pharmaceutical compositions and uses thereof” (SHANGHAI INSTITUTE OF MATERIA MEDICA, CHINESE ACADEMY OF …, priority 2013, dated 2019)
# What was measured:
# [1] = test system: HIV-1Ba-L virus strain; experiment: Inhibition of viral replication in HOS-CD4-CCR5 cells infected with HIV-1Ba-L; assay type: cell-based
# Description: (§1) On the day before the test, 1×10^5/ml of HOS-CD4-CCR5 cells were inoculated in 96-well plates with 100 μl for each well. The compound to be tested was subject to 5-fold dilution in 96-well microtiter plate with DMEM complete medium (containing 10% FBS). The starting concentration was 1 μM and six dilutions were obtained. Triplicate wells were set for each dilution and each well contained 100 μl mixture. While wells not containing drugs were set as control. The supernatant was removed and 100 μl of drug was added and incubated for 2 h. Then 100 μl of HIV-1SF162 and HIV-1Ba-L were added to dilute supernatant. The cells were infected for 1 h, free virus was washed out and drug with the same final concentration was added. MVC was used as positive control. The cells were cultured at 37° C. with 5% CO2 for three days. The supernatant was collected, lysed and inactivated with 0.5% Triton X-100. The inhibition effect of drug on HIV-1 replication was detected using p24 antigen capture ELISA method.
# [2] = Cytotoxicity (CC50) in TZM-bl cells; assay type: cell-based; conditions: human; TZM-bl cells (Table 3); read-out: CC50
# [3] = test system: HIV-1SF162 virus strain; experiment: Inhibition of viral replication in HOS-CD4-CCR5 cells infected with HIV-1SF162; assay type: cell-based; conditions: Human immunodeficiency virus 1, HOS-CD4-CCR5
# Description: as §1
# [4] = Toxicity test of compounds on PBMC cells (MTT); assay type: cell-based; conditions: human; PBMC cells (Table 4)
# Description: (§2) The compound to be tested was subject to 5-fold dilution in a 96-well microtiter plate with RPMI-1640 or DMEM complete medium (containing 10% FBS) (Six dilution) triplicate for each dilution and 100 μl for each well. While wells not containing drugs were set as control. Into each well was added 100 μl of 4×10^5/ml PM1, HOS-CD4-CCR5 cells or 100 μl of 5×10^6/ml PHA stimulated PBMC. The cells were cultured at 37° C. with 5% CO2 for three days (PBMC cells were cultured for seven days and 100 μl of fresh RPMI-1640 complete medium was supplemented on the third day). Cytotoxicity was tested with MTT assay. OD values were measured by ELx800 microplate reader. The detection wavelength was 570 nm, and the reference wavelength was 630 nm.
# [5] = test system: HIV-1SF162 virus strain; experiment: Inhibition of viral replication in PBMC infected with HIV-1SF162; assay type: cell-based
# Description: (§3) The virus was titrated according to the modified method of Johnson & Byington. Briefly, the HIV-1 stock solution was subject to four-fold dilution in a 96-well plate (ten gradients) sextuplicate for each gradient, while setting six control-wells. Into each well was added 100 μl (5×10^6/ml) PHA-stimulated PBMC cells and final volume per well was 200 μl. The cells were cultured at 37° C. with 5% CO2. […] On the seventh day, the infected supernatant was collected and lysed with 0.5% Triton X100. The p24 antigen was detected by ELISA and TCID50 of virus was calculated according to Reed & Muench method (50% Tissue culture infection dose).
# (§4) The starting concentration was 1 μM, six dilutions were obtained, and each well contained 200 μl mixture. While wells not containing drugs were set as control. […] After homogeneously mixed, the mixture was immediately added to 48-well plate containing diluted drug and each well was added with 200 μl of mixture. MVC was used as positive control. The cells were cultured at 37° C. with 5% CO2 for seven days (drug with the same concentration was added on the third day). The supernatant was collected, lysed and inactivated with 0.5% Triton X-100. The inhibition effect of drug on HIV-1 replication was detected using p24 antigen capture ELISA method.
# [6] = test system: HIV-1Ba-L virus strain; experiment: Inhibition of viral replication in PBMC infected with HIV-1Ba-L; assay type: cell-based
# Description: The virus was titrated according to the modified method of Johnson & Byington. Briefly, the HIV-1 stock solution was subject to four-fold dilution in a 96-well plate (ten gradients) sextuplicate for each gradient, while setting six control-wells. Into each well was added 100 μl (5×10^6/ml) PHA-stimulated PBMC cells and final volume per well was 200 μl. The cells were cultured at 37° C. with 5% CO2. On the third day, 100 μl of fresh RPMI-1640 complete medium was supplemented. On the seventh day, the infected supernatant was collected and lysed with 0.5% Triton X100. The p24 antigen was detected by ELISA and TCID50 of virus was calculated according to Reed & Muench method (50% Tissue culture infection dose).
# The compound to be tested was subject to 5-fold dilution in 48-well plate with RPMI-1640 complete medium (containing 10% FBS). The starting concentration was 1 μM, six dilutions were obtained, and each well contained 200 μl mixture. While wells not containing drugs were set as control. Virus (MOI=0.01) was added to 5×10^6/ml of PBMC cells which have been stimulated by PHA for 72 h. After homogeneously mixed, the mixture was immediately added to 48-well plate containing diluted drug and each well was added with 200 μl of mixture. MVC was used as positive control. The cells were cultured at 37° C. with 5% CO2 for seven days (drug with the same concentration was added on the third day). The supernatant was collected, lysed and inactivated with 0.5% Triton X-100. The inhibition effect of drug on HIV-1 replication was detected using p24 antigen capture ELISA method.
# [7] = Toxicity test of compounds on HOS-CD4-CCR5 cells (MTT); assay type: cell-based; conditions: human; HOS-CD4+-CCR5 cells (Table 7)
# Description: as §2
# [8] = test system: HIV-1KM018 virus strain; experiment: Inhibition of viral replication in PBMC infected with HIV-1KM018; assay type: cell-based; conditions: Human immunodeficiency virus 1, PBMC
# Description: as §3, §4
# [9] = test system: HIV-1SF162 virus strain; experiment: Inhibition activity on TZM-bl cells infected with HIV-1SF162
# [10] = target: CYP1A2 (Homo sapiens (Human), UniProt P05177); experiment: CYP450 inhibition activity assay (Vivid kit) CYP1A2; assay type: in vitro ADME; conditions: CYP450 subtype (μM) 1A2 (IC50)
# Sequence of CYP1A2 (P05177 whole entry): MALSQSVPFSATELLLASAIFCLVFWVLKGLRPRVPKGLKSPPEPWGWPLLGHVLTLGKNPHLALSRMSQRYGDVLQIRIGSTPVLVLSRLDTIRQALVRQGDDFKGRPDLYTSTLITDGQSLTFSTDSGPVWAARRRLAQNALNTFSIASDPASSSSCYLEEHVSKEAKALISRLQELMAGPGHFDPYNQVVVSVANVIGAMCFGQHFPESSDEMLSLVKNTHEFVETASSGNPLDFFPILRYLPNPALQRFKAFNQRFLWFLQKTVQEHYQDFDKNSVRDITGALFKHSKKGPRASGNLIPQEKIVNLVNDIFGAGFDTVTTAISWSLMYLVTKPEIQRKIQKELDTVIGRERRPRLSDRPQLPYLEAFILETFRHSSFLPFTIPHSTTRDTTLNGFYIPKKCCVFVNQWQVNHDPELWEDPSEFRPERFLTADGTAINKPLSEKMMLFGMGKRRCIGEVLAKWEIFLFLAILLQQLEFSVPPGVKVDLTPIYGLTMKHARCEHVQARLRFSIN
# Description: (§5) VividR CYP450 Screening Kits can be used to evaluate the effects on CYP450 subtypes (CYP1A2, CYP2D6, CYP2C9, CYP2C19, CYP3A4-T and CYP3A4-M) and the substrate VividR in the kit can be metabolizd to a product which can emit strong fluorescence in an aqueous solution by specific CYP450 enzymes.
# (§6) The compounds to be tested and positive compound were added to corresponding wells and DMSO was added to control wells.
# (§7) CYP450 enzyme was added to the compounds to be tested, positive compound and DMSO control wells. The enzyme dilution was used to replace enzyme and added to DMSO wells as test background. The mixture was vibrated and mixed for 1 minute, and then incubated at room temperature for 20 minutes.
# (§8) NADP^+ regeneration system and the substrate were added to initiate the reaction and incubated at room temperature for 60 minutes.
# [11] = test system: CCR5 protein; experiment: Thermal stability of protein test (CPM-assay); assay type: binding; conditions: for Tm (° C.): thermal stability of CCR5 protein with compound, CPM dye
# Text: Experimental theory: many cysteines are present in CCR5 protein sequence. Cysteines located in loop region form disulfide bonds to stabilize the tertiary structure of the protein. Some free cysteines in reduced state are located in the transmembrane region. Under excitation by incident light of 387 nm, the combination of free sulfhydryl and fluorescent dye CPM can emit excitation light of 436 nm. […] The free sulfhydryls originally located in the transmembrane region expose and combine with the fluorescent dye. And then the detector will detect changes in signal enhancement. Therefore, the thermal stability of membrane proteins can be determined according to the temperature (Tm) at the midpoint of changes in signal intensity.
# Experimental steps: Upon preliminary purification, the obtained protein solution was transferred into a small concentration tube (100 kd, 500 ul) for concentration (1000 rcf, 12 min, 4° C.). After centrifugation, the concentration tube was taken out and flicked to prevent protein coagulation due to high local concentration. The final concentrated volume was about 50 μl. 117 μl of purified solution (volume is suitable to make the total volume up to 120 μl), 1 μl fluorescent dye cpm (in-house prepared) and 2 μl of concentrated protein solution (the amount of added protein is 3-5 μg according to the calculated concentration of the protein solution and the concentrated volume) were added to 2 ml Ependorf tube and incubated at room temperature for 20 min. And then the mixture was added to the cuvette (Qwan) and put in the testing equipment Cary, wherein the surface of the frosted glass faced out. The temperature was set in the range of 4-90° C. with 1° C. increase per minute and the program was run. Tm value can be obtained by processing the data and graph with a mapping software and can be used to compare the difference of protein thermal stability under different conditions.
# [12] = target: CYP2D6 (Homo sapiens (Human), UniProt P10635); experiment: CYP450 inhibition activity assay (Vivid kit) CYP2D6; assay type: in vitro ADME; conditions: CYP450 subtype (μM) 2D6 (IC50)
# Sequence of CYP2D6 (P10635 whole entry): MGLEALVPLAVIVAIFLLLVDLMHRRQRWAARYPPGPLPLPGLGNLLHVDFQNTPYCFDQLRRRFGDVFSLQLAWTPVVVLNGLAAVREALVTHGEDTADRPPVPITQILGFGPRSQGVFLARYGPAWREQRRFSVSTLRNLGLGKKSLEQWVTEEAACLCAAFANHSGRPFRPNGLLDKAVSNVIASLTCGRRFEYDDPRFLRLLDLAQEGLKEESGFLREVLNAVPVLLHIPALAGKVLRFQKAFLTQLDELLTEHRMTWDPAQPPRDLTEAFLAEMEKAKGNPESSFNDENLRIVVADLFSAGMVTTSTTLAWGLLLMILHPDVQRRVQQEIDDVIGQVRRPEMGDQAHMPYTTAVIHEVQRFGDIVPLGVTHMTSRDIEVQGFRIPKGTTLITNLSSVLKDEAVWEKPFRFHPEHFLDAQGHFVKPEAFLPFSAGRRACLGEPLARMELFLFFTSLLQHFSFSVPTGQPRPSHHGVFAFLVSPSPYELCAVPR
# Description: as §5, §6, §7, §8
# [13] = target: CYP2C19 (Homo sapiens (Human), UniProt P33261); experiment: CYP450 inhibition activity assay (Vivid kit) CYP2C19; assay type: in vitro ADME; conditions: CYP450 subtype (μM) 2C19 (IC50)
# Sequence of CYP2C19 (P33261 whole entry): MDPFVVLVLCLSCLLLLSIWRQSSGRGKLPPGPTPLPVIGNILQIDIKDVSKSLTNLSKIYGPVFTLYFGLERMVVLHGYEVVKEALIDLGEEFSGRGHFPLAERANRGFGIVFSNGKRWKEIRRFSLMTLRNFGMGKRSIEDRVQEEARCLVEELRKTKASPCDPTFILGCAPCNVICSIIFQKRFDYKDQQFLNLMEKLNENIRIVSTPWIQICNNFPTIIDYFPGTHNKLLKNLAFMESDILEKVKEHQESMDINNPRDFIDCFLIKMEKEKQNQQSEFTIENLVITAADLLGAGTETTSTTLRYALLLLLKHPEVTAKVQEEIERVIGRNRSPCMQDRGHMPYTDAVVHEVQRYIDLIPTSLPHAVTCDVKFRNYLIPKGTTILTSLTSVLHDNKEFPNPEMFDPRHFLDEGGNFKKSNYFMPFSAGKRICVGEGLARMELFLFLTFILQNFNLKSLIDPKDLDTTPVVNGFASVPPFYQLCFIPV
# Description: as §5, §6, §7, §8
# [14] = target: CYP2C9 (Homo sapiens (Human), UniProt P11712); experiment: CYP450 inhibition activity assay (Vivid kit) CYP2C9; assay type: in vitro ADME; conditions: CYP450 subtype (μM) 2C9 (IC50)
# Sequence of CYP2C9 (P11712 whole entry): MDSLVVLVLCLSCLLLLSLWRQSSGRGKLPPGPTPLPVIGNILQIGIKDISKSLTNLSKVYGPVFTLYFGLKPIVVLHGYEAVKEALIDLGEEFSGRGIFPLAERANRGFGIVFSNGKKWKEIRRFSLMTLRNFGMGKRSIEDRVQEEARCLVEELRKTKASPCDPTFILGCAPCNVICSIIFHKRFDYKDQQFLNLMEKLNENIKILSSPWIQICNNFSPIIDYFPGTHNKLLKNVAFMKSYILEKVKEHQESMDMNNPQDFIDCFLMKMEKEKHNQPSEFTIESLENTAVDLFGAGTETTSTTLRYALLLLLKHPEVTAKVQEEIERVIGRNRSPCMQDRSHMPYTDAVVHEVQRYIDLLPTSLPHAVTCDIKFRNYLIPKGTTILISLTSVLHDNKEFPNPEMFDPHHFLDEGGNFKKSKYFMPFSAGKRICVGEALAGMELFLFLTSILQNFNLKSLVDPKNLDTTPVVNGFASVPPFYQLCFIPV
# Description: as §5, §6, §7, §8
# [15] = marketed drug, literature value, species not stated; cited from earlier work
# [16] = target: CCR5 (Homo sapiens (Human), UniProt P51681); experiment: Calcium flux inhibition experiment; assay type: cell-based; conditions: for IC50: HEK293/CCR5-Gα16 cell line, calcium flux, read-out: CCR5 IC50; for calcium influx inhibition effect in words, versus positive control compounds: conclusion from Table 1
# Sequence of CCR5 (P51681 whole entry): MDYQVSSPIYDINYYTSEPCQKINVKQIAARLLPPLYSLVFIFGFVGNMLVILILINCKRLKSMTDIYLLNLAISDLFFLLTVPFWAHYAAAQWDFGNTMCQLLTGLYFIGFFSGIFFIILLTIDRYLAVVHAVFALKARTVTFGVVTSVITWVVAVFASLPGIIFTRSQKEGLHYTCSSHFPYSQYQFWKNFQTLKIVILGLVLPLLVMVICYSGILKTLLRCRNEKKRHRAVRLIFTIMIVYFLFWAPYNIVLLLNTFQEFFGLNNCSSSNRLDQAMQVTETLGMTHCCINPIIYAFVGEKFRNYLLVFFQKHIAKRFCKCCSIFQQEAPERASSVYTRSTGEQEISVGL
# [17] = test system: TZM-bl cells; experiment: Cytotoxicity (CC50) in TZM-bl cells; assay type: cell-based; conditions: TZM-bl cells (Table 3)
# [18] = target: hERG (Homo sapiens (Human), UniProt Q12809)
# Sequence of hERG (Q12809 whole entry): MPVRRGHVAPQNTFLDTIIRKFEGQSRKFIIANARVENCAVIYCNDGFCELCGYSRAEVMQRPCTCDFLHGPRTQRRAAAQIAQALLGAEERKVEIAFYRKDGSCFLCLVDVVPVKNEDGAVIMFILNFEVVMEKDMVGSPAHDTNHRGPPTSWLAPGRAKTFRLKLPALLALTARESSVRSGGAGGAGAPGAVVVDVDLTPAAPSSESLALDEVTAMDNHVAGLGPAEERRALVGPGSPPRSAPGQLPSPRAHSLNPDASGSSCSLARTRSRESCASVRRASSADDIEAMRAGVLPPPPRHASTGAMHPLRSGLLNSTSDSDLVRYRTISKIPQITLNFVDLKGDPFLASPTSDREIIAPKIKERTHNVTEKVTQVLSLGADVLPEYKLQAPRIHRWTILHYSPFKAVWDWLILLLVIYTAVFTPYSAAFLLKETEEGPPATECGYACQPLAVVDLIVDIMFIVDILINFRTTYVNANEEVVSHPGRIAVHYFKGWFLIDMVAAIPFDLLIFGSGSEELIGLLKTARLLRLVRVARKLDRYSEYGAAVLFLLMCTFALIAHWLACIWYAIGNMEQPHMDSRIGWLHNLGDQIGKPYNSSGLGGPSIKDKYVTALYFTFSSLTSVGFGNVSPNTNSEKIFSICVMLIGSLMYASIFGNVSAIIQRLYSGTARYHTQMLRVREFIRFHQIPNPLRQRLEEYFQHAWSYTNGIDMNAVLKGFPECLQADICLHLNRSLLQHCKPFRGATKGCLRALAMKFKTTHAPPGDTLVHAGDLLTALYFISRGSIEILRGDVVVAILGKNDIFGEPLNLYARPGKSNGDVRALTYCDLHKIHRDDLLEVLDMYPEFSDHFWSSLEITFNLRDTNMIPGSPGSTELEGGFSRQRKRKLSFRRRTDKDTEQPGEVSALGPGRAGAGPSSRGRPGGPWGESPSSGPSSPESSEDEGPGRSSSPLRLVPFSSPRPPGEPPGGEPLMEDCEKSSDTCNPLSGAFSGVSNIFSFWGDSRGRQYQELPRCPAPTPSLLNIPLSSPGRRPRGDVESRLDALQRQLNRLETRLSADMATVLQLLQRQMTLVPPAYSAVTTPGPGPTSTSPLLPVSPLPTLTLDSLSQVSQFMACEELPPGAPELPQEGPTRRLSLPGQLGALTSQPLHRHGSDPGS
# Description: CHO-hERG cells which have been incubated overnight were added with sample buffer and incubated for 90 minutes at room temperature in darkness.
# The sample buffer was removed and assay buffer was added.
# The compound is added to the cell plate and incubated for 20 minutes in darkness.
# Cell plate was placed into FDSS. The fluorescence signal was recorded every second for 10 seconds. Exciting buffer was added to the cells at the 10th second and the fluorescence signal was recorded every second for 180 seconds
# [19] = Human immunodeficiency virus 1, PBMC
# [20] = Human immunodeficiency virus 1, TZM-bl
# [21] = TZM-bl cells infected with HIV-1SF162
compound,measurement,setting,value
"Cc1nnc(C(C)C)n1C1CC2CCC(C1)N2CCC(NC(=O)C1CCC(F)(F)CC1)c1cccs1 (stereo not drawn) [Compound 3, 4,4-difluoro-N-[3-[exo-3-(3-isopropyl-5-methyl-4H-1,2,4-triazol-4-yl)-8-azabicyclo[3.2.1]octane-8-yl]-1-(thiophen-2-yl)propyl]cyclohexane-1-carboxamide]",therapeutic index (TI),[1]; HOS-CD4+-CCR5 cells infected with HIV-1Ba-L,19495
same,EC50,"[1]; Human immunodeficiency virus 1, HOS-CD4-CCR5",0.0171 µg/mL
same,CC50 at 3 days,[2],> 100 µg/mL
same,EC50,[3],0.0244 µg/mL
same,CC50 at 7 days,[4],273 µg/mL
same,EC50,[5]; [19],0.146 µg/mL
same,therapeutic index (TI),[5]; PBMC cells infected with HIV-1SF162,1874
same,EC50,[6]; [19],0.0912 µg/mL
same,therapeutic index (TI),[6]; PBMC cells infected with HIV-1Ba-L,3328.9
same,CC50 at 3 days,[7],334 µg/mL
same,EC50,[8],0.0157 µg/mL
same,EC50,[9]; [20],0.0024 µg/mL
same,therapeutic index (TI),[9]; [21],>41666.67
same,"cytotoxicity in vitro and therapeutic index in words, versus positive control compound","[9]; TZM-bl cells infected with HIV-1SF162, conclusion from Table 3",better than positive control compound
"Cc1nnc(C(C)C)n1[C@@H]1C[C@H]2CC[C@@H](C1)N2CC[C@H](NC(=O)C1CCC(F)(F)CC1)c1ccccc1 [Maraviroc, reference compound]",IC50,[10],> 25 µM
same,CC50,[2],> 200 µg/mL
same,Tm (° C.),[11],72.17 °C
same,IC50,[12],> 25 µM
same,IC50,[13],> 25 µM
same,IC50,[14],14.4 µM
same,bioavailability as reported,[15],5%
same,EC50,[9]; [20],0.00814 µg/mL
"Cc1nnc(C(C)C)n1[C@@H]1C[C@H]2CC[C@@H](C1)N2CC[C@H](NC(=O)C1CCC(F)(F)CC1)c1cccc(F)n1 [Compound 34, 4,4-difluoro-N-[(1S)-3-[exo-3-(3-isopropyl-5-methyl-4H-1,2,4-triazol-4-yl)-8-azabicyclo[3.2.1]octane-8-yl]-1-(6-fluoropyridin-2-yl)propyl]cyclohexane-1-carboxamide]",IC50,[16],0.143 µM
same,CC50,[17],>200 µg/mL
same,EC50,[9]; [21],>40 µg/mL
"4,4-difluoro-N-[(1S)-3-[exo-3-(3-isopropyl-5-methyl-4H-1,2,4-triazol-4-yl)-8-azabicyclo[3.2.1]octane-8-yl]-1-(pyridin-3-yl)propyl]cyclohexane-1-carboxamide [Compound 6]",IC50,[16],0.0069 µM
same,"calcium influx inhibition effect in words, versus positive control compounds",[16],better than the positive control compounds
same,CC50,[17],>100 µg/mL
same,Tm (° C.),[11],58.56 °C
same,EC50,[9]; [21],1.51 µg/mL
same,therapeutic index (TI),[9]; [21],66.23
"4-ethyl-N-[(1S)-3-[exo-3-(3-isopropyl-5-methyl-4H-1,2,4-triazol-4-yl)-8-azabicyclo[3.2.1]octane-8-yl]-1-(thiophen-3-yl)propyl]cyclopentane-1-carboxamide [Compound 20]",IC50,[16],0.00514 µM
same,"calcium influx inhibition effect in words, versus positive control compounds",[16],better than the positive control compounds
same,CC50,[17],69.68 µg/mL
same,"protein stability effect in words, versus positive control compound",[11]; conclusion from Table 2,comparable with the positive control compound
same,Tm (° C.),[11],70.27 °C
same,IC50,[18],14.4 µM
same,"hERG inhibition activity in words, versus positive control compounds",[18],better that those of positive control compounds
same,EC50,[9]; [21],0.00487 µg/mL
same,therapeutic index (TI),[9]; [21],14308.01
